{"source": "patent US11951131B2", "about": "“Anti-SLAMF7 chimeric antigen receptors” (The United States of America, as represented by the …, priority 2018, dated 2024)", "key": {"[1]": {"system": "IC9-Luc90-CD828Z CAR T cells", "test": "AP1903 abrogation of CAR T-cell activity in MM.1S tumor-bearing mice", "type": "in vivo, NSG mice", "settings": "2×10^6 IC9-Luc90-CD828Z T cells plus vehicle control", "experimental": "First, MM.1S human SLAMF7^+ multiple myeloma cell line tumors were established in immunodeficient mice. In this model, the MM.1S cells formed a solid cutaneous mass. Measurable tumors were allowed to develop over 7 days, and then the mice were treated with a single intravenous infusion of MSGV1-IC9-Luc90-CD828Z-transduced human T cells. NSG mice (NOD.Cg-Prkdc^scid Il2rg^tm1Wjl/SzJ) from The Jackson Laboratory, Bar Harbor, Me., were used. Mice received intradermal injections of 4×10^6 MM.1S cells. The cells were suspended in a 1:1 mixture of MATRIGEL™ gelatinous protein mixture (BD Biosciences) and PBS (Phosphate-buffered saline) for injection. Tumors were allowed to grow for 7 days, and then each mouse received a single intravenous infusion of human T cells that were transduced with one of 3 CARs: IC9-Luc90-CD828Z (suicide gene+anti-SLAMF7 CAR), Luc90-CD828Z (anti-SLAMF7 CAR alone), or a negative-control anti-CD19 CAR Hu19-CD828Z. A 4th group was left untreated. All groups included 5 mice. After CAR T-cell infusion, the tumors were measured with calipers every 3 days. The longest length and the length perpendicular to the longest length and the tumor thickness were multiplied together to obtain the tumor volume in mm^3. When the longest length reached 15 mm, mice were sacrificed. Animal studies were approved by the National Cancer Institute Animal Care and Use Committee.\nMM.1S tumors were established in NSG mice as described in Example 9. The mice were treated with 2×10^6 IC9-Luc90-CD828Z T cells. The mice received 5 mg/kg of AP1903 intraeritoneally for either 3 days or 12 days after the CAR T-cell infusion. […] Also levels of IC9-Luc90-CD828Z CART cells in the mice receiving AP1903 were reduced as compared to the mice receiving the vehicle."}, "H929": {"system": "H929", "test": "IFN-gamma ELISA, CAR T cells with H929 target cells", "type": "cell-based, human", "settings": "Table C", "experimental": "(§1) One-hundred thousand SLAMF7^+ or SLAMF7-negative target cells were combined with 100,000 CAR-transduced T cells in duplicate wells of a 96 well round bottom plate in 200 µL of AIM V™ medium (Invitrogen) plus 5% human serum. The plates were incubated at 37° C. for 18-20 hours. Following the incubation, ELISAs (enzyme-linked immunosorbent assays) for IFNγ were performed by using standard methods.\n(§2) All values are pg/mL of IFN-gamma. T cells that were either untransduced or transduced with one of the indicated CARs were cultured with target cells overnight, and a standard IFN-gamma ELISA was performed on the culture supernatant."}, "Panc 10.05": {"system": "Panc 10.05", "test": "IFN-gamma ELISA, CAR T cells with Panc 10.05 target cells", "type": "cell-based, human", "settings": "Table B-2", "description": "(§3) MM.1S is a SLAMF7^+ multiple myeloma cell line that was obtained from American Type Culture Collection (ATCC). A549 is a BCMA-negative lung cancer cell line (ATCC). TC71 is a BCMA-negative sarcoma cell line. CCRF-CEM, 293T, and A549 are SLAMF7-negative cell lines (ATCC). COL0207, HepG2, U251, Panc10.05, and TC71 are […] that were kind gifts from Dr. Steven Rosenberg, National Cancer Institute. SLAMF7-K562 are K562 cells (ATCC) which were transduced with the gene for full-length SLAMF7. SLAMF7-RPMI are RPMI8226 cells (ATCC) which were transduced with the gene for full-length SLAMF7. NGFR-K562 are K562 cells which were transduced with the gene for low-affinity nerve growth factor (Kochenderfer et al., J. Immunother., 32(7): 689-702 (2009)). All of the human samples mentioned were obtained from patients enrolled in IRB-approved clinical trials at the National Cancer Institute.\n(§4) One-hundred thousand SLAMF7^+ or SLAMF7-negative target cells were combined with 100,000 CAR-transduced T cells in duplicate wells of a 96 well round bottom plate in 200 µL of AIM V™ medium (Invitrogen) plus 5% human serum. […]\n(§5) The T cells columns indicate whether T cells were transduced with Luc90-CD828Z, Luc63-CD828Z, or were untransduced. The % CAR^+ in Table B-1 was determined by staining the T cells with Protein L. Except for the % CAR^+ column, all values are pg/mL of IFN-gamma. […]"}, "A549": {"system": "A549", "test": "IFN-gamma ELISA, CAR T cells with A549 target cells", "type": "cell-based, human", "settings": "Table B-2; SLAMF7-negative", "description": "as §3, §4, §5"}, "COLO 205": {"system": "COLO 205", "test": "IFN-gamma ELISA, CAR T cells with COLO 205 target cells", "type": "cell-based, human", "settings": "Table B-1", "description": "as §3, §4, §5"}, "SLAMF7-RPMI": {"system": "SLAMF7-RPMI", "test": "IFN-gamma ELISA, CAR T cells cultured overnight with SLAMF7-RPMI target cells", "type": "cell-based, human", "description": "as §3, §1\nThe T cells columns indicate whether T cells were transduced with Luc90-CD828Z, Luc63-CD828Z, or were untransduced. The % CAR^+ in Table B-1 was determined by staining the T cells with Protein L. Except for the % CAR^+ column, all values are pg/mL of IFN-gamma. T cells that were either untransduced or transduced with one of the indicated CARs were cultured with target cells overnight and a standard IFN-gamma ELISA was performed on the culture supernatant.\nas §2\nThe values in the cells are pg/mL of IFN-gamma. T cells that were either untransduced or transduced with one of the indicated CARs were cultured with target cells overnight, and a standard IFN-gamma ELISA was performed on the culture supernatant. The concentrations of 0, 50, or 200 ng/mL at the top of each column indicates the concentration of soluble SLAMF7 added to all T cell plus target cell overnight cultures in that column. The soluble SLAMF7 was added at the beginning of the overnight culture."}, "SLAMF7^+ target cells": {"system": "SLAMF7^+ target cells", "test": "IFN-gamma ELISA and functional assays", "type": "cell-based, human", "experimental": "as §1\nCAR-expressing T cells cultured alone produced very low levels of IFNγ. IFNγ production of T cells expressing a CAR with a 4-1BB moiety, Luc90-CD8BBZ, was compared to IFNγ production of T cells expressing Luc90-CD828Z (Table C). […] Low levels of soluble SLAMF7 are found in the serum of some MM patients (see Tai, et al., Blood, 112(4): 1329-1337 (2008)). IFNγ ELISA assays were conducted to determine if adding SLAMF7 to cultures of anti-SLAMF7 CAR T cells plus target cells could block IFNγ release by the CAR T cells (Table D). IFNγ release by the CART cells was used as a measure recognition of the SLAMF7^+ target cells by the CAR T cells. The concentrations of soluble SLAMF7 added to the cultures were similar to those found in the blood of patients. Blocking of SLAMF7^+ target cell recognition by the soluble SLAMF7 was not observed. Also, activation of the anti-SLAMF7 CAR T cells by the soluble SLAMF7 was not observed."}}}
{"substance": "IC9-Luc90-CD828Z: CAR plus suicide gene construct (SEQ ID NO: 31): IC9 suicide gene 5′ to the CAR, T2A, Luc90-CD828Z", "values": [{"measurement": "tumor outcome in mice receiving vehicle instead of AP1903", "setting": "[1]", "value": "tumor elimination"}]}
{"substance": "Luc90-CD828Z: anti-SLAMF7 CAR (SEQ ID NO: 27): murine Luc90 scFv, human CD8a hinge and TM, CD28 and CD3ζ domains; tested as transduced T cells", "values": [{"measurement": "IFN-gamma, target cells H929", "setting": "H929", "value": 531, "unit": "pg/mL"}, {"measurement": "IFN-gamma, target cells Panc 10.05", "setting": "Panc 10.05", "value": 36, "unit": "pg/mL"}, {"measurement": "IFN-gamma, target cells A549", "setting": "A549", "value": 79, "unit": "pg/mL"}, {"measurement": "IFN-gamma, target cells COLO 205", "setting": "COLO 205", "value": 19, "unit": "pg/mL"}, {"measurement": "IFN-gamma, target cells SLAMF7-RPMI", "setting": "SLAMF7-RPMI; Table B-1, overnight culture, ELISA on supernatant", "value": 21293, "unit": "pg/mL"}, {"measurement": "IFN-gamma, target cells SLAMF7-RPMI8226", "setting": "SLAMF7-RPMI; Table C, overnight culture", "value": 20832, "unit": "pg/mL"}, {"measurement": "IFN-gamma, target cells SLAMF7 RPMI 0 ng/ml", "setting": "SLAMF7-RPMI; Table D, soluble SLAMF7 added 0 ng/ml", "value": 23538, "unit": "pg/mL"}, {"measurement": "IFN-gamma, target cells SLAMF7 RPMI 50 ng/ml", "setting": "SLAMF7-RPMI; Table D, soluble SLAMF7 added 50 ng/ml", "value": 23.315, "unit": "ng/mL"}, {"measurement": "IFN-gamma, target cells CD319 RPMI 200 ng/ml", "setting": "SLAMF7-RPMI; Table D, soluble SLAMF7 added 200 ng/ml", "value": 21301, "unit": "pg/mL"}, {"measurement": "function of T cells expressing the CAR, overall comparison", "setting": "SLAMF7^+ target cells; ELISA assays and CD107a degranulation experiments, versus huLuc63-CD828Z", "value": "superior"}, {"measurement": "SLAMF7-specific IFNγ release, comparison of CARs", "setting": "SLAMF7^+ target cells; Luc90-CD828Z versus huLuc63-CD828Z, most experiments", "value": "greater"}]}
